Patent EP0602242A1, “BENZISOXAZOLE COMPOUND AND USE THEREOF” (priority 1991, dated 1993)
Counter-ions that a name gives are not always drawn. Like-named read-outs stand apart in the source and are kept apart here.

What was measured:
[1] = molecular target: butyrylcholinesterase (BChE) derived from human (Homo sapiens, UniProt P06276); experiment: biochemical
[2] = molecular target: acetylcholinesterase (AChE) derived from human (Homo sapiens, UniProt P22303); experiment: biochemical
[3] = Acute toxicity after oral administration; conditions: rat, in vivo; oral administration to rats; read-out: acute toxicity values (LD₅₀)
Method: The acute toxicity values (LD₅₀) of the compounds of the present invention 6 and 41 after oral administration to rats were not less than 50 mg/kg.

[4] = molecular target: T1, acetylcholinesterase (AChE) (Rattus norvegicus, UniProt P37136); experiment: biochemical; set-up: species or system male Wistar rat
T1 construct: An enzyme solution was a homogenized solution of forebrain from male Wistar rat; from tissue; host or cells: forebrain of male Wistar rat (homogenate)
T1 sequence (P37136 32-614): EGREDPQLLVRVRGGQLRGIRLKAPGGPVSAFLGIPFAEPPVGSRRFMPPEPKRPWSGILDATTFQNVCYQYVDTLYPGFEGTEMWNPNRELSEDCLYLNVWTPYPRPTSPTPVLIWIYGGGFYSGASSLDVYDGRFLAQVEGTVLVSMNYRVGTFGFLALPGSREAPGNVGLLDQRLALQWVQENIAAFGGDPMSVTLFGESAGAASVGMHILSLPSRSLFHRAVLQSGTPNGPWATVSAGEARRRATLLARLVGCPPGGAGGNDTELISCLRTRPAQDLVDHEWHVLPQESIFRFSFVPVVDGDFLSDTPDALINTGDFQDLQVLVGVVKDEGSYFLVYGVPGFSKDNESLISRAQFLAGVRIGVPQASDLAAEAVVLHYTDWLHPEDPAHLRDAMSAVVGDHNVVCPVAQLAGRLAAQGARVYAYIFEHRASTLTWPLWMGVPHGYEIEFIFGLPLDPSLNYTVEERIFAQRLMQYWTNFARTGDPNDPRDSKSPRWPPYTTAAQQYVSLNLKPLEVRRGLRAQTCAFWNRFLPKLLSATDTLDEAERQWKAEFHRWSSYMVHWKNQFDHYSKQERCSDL
Method: An enzyme solution was a homogenized solution of forebrain from male Wistar rat in 0.1M phosphate buffer (pH 8.0). Acetylthiocholine was used as a substrate for acetylcholinesterase (AChE) and the density of thionitrobenzoate (yellow) produced by the following reaction was measured with a spectrophotometer (OD₄₁₂). [drawing 27] Thiocholine + dithiobisnitrobenzoate → thionitrobenzoate Test compounds were dissolved in dimethylsulfoxide and diluted with 0.1M phosphate buffer (pH 8.0).

sigma receptor = experiment: Sigma receptor binding test (3H-DTG, rat cerebral cortex membrane fractions); set-up: species or system Male Wistar rats; conditions: rat cerebral cortex membranes, 3H-DTG 2.5 nM, 25°C 60 minutes, Ki = IC50/[1 + (L/Kd)], Kd 26.3 nM; read-out: Sigma receptor binding assay ³H-DTG (Ki)
Method: Male Wistar rats weighing 250-300 g were decapitated and the brains were removed. Cerebral cortex was dissected on ice, and the brain tissues were homogenized in 20 volumes of Tris-HCl buffer (pH 8.0, 25°C) containing 320 mM sucrose. The homogenate was centrifuged at 1000 × g for 10 minutes. The obtained supernatant was centrifuged at 31,000 × g for 15 minutes and the pellets obtained were suspended in the same Tris-HCl buffer, followed by incubation at 37°C for 10 minutes. Centrifugation was repeated twice and the final pellets were suspended in 50 mM Tris-HCl buffer (pH 8.0, 25°C) and used as membrane fractions.
A binding inhibitory test was conducted by adding [³H]-1,3-di-o-tolylguanidine (³H-DTG, 39.4 Ci/mmol, New England Nuclear, final concentration 2.5 nM) and respective test compounds (5 different concentrations) to the membrane fractions (0.9 ml, 0.5-0.8 mg) and then the above-mentioned buffer to the final volume of 1 ml. The mixtures were incubated at 25°C for 60 minutes. The reaction mixture was suction-filtered through Whatman GF/B filters which had been treated previously with 0.1% polyethyleneimine and washed three times with 3 ml of 10 mM Tris-HCl buffer (pH 7.7, 25°C). Then, the β rays of the bound ³H-DTG on the filter were measured by a liquid scintillation counter.
IC₅₀ values were determined graphically and Ki values were calculated by the numerical equation Ki = IC₅₀/[1 + (L/Kd)] [formula] wherein L is a concentration of radioligand and Kd (26.3 nM) is a dissociation constant between tritiated ligand and the receptor.

[5] = AChE derived from human, substrate acetylthiocholine, read-out: IC₅₀ AChE
[6] = IC50 for human BChE divided by IC50 for human AChE
[7] = BChE derived from human, substrate butyrylthiocholine, read-out: IC₅₀ BChE
[8] = homogenized forebrain of male Wistar rat, substrate acetylthiocholine, 0.1M phosphate buffer pH 8.0, read-out: Acetylcholinesterase inhibition IC₅₀

acetylcholinesterase (AChE) derived from human, sequence (P22303 32-614): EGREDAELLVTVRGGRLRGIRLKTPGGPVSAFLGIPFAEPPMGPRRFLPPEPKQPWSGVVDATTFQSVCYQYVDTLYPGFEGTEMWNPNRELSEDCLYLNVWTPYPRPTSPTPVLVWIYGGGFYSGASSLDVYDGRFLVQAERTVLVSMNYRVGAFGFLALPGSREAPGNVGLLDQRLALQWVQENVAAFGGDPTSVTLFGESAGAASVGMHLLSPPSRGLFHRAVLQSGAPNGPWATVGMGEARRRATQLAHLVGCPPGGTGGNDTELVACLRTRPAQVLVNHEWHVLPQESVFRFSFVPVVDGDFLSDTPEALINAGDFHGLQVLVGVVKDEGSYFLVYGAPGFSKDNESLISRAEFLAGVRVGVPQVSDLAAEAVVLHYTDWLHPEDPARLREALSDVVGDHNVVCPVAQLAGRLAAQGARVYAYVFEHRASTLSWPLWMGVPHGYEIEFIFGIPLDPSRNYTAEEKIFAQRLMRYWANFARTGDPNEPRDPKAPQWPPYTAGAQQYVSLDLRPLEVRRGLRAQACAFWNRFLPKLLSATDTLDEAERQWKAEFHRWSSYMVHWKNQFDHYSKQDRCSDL
butyrylcholinesterase (BChE) derived from human, sequence (P06276 29-602): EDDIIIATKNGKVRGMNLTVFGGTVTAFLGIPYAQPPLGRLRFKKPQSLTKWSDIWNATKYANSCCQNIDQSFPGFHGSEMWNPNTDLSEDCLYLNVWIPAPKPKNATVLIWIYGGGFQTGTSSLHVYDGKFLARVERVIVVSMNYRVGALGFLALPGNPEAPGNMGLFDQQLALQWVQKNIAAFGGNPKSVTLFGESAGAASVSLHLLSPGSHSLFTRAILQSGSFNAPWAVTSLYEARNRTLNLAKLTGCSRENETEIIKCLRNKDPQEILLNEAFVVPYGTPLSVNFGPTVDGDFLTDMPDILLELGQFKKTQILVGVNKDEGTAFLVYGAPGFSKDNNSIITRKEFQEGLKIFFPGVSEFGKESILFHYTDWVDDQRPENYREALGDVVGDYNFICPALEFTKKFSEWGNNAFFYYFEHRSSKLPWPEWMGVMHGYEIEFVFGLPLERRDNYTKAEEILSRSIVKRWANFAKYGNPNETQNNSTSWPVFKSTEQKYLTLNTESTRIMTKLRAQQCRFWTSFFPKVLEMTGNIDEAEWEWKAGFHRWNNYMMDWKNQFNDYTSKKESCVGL

For CC(=O)Nc1ccc2c(CCC3CCN(Cc4ccccc4)CC3)noc2c1 [Example 6, 6-acetylamino-3-(2-(1-benzyl-4-piperidyl)ethyl)-1,2-benzisoxazole], the IC50 [1] was 9500 nM, the “Selectivity IC₅₀ (BChE)/IC₅₀ (AChE)” value [2] was 4,500 and the IC50 [2, 5] was 2.1 nM. It also gave an LD50 [3] of no less than 50 mg/kg.
In the case of CN(C)C(=S)Oc1ccc2c(CCC3CCN(Cc4ccccc4)CC3)noc2c1 [Example 11], the IC50 [1] is reported as greater than 10000 nM, the IC50 [2] is reported as 0.5 nM and the “Selectivity IC₅₀ (BChE)/IC₅₀ (AChE)” value [2, 6] is reported as >20,000.
With COc1ccc2c(CCC3CCN(Cc4ccccc4)CC3)noc2c1OC [Example 19, 3-(2-(1-benzyl-4-piperidyl)ethyl)-6,7-dimethoxy-1,2-benzisoxazole] the IC50 [1, 7] was 7500 nM, the IC50 [4, 8] was 0.38 nM and the IC50 [2, 5] was 1.8 nM. For the same molecule, the “Selectivity IC₅₀ (BChE)/IC₅₀ (AChE)” value [2, 6] was 4,200.
In the case of CNC(=O)Oc1cccc(CN2CCC(CCc3noc4c(OC)c(OC)ccc34)CC2)c1 [Example 23, 3-(2-(1-(3-(N-methylcarbamoyloxy)benzyl)-4-piperidyl)ethyl)-6,7-dimethoxy-1,2-benzisoxazole], the IC50 [4] is reported as 0.34 nM.
For CC(=O)N(C)c1ccc2c(CCC3CCN(Cc4ccccc4)CC3)noc2c1 [Example 41, 3-(2-(1-Benzyl-4-piperidyl)ethyl)-6-(N-methylacetamino)-1,2-benzisoxazole], the IC50 [1, 7] was 17000 nM, the IC50 [2, 5] was 4.6 nM and the “Selectivity IC₅₀ (BChE)/IC₅₀ (AChE)” value [2, 6] was 3,700. For the same molecule, the LD50 [3] was no less than 50 mg/kg.
Molecule Cc1ccc2onc(OCCC3CCN(CC4CCCCC4)CC3)c2c1 [Example 160, 3-(2-(1-Cyclohexylmethyl-4-piperidyl)ethyloxy)-5-methyl-1,2-benzisoxazole fumarate] has a Ki (sigma receptor) of 0.23 nM.
Work on Cc1ccc2c(OCCC3CCN(CC4CCCCC4)CC3)noc2c1 [Example 164, 3-(2-(1-Cyclohexylmethyl-4-piperidyl)ethyloxy)-6-methyl-1,2-benzisoxazole fumarate] yielded a Ki (sigma receptor) of 0.37 nM.
In the case of O=C(Nc1ccc2c(=O)n(CCCC3CCN(Cc4ccccc4)CC3)oc2c1)c1ccccc1 [Example 198, 6-benzoylamino-2-(3-(1-benzyl-4-piperidyl)propyl)-1,2-benzisoxazol-3(2H)-one], the IC50 [1, 7] is reported as 3600 nM, the IC50 [2, 5] is reported as 0.94 nM and the “Selectivity IC₅₀ (BChE)/IC₅₀ (AChE)” value [2, 6] is reported as 3,800.
For Cc1ccc2c(=O)n(CCC3CCN(CC4CCCCC4)CC3)oc2c1 [Example 227, 2-(2-(1-Cyclohexylmethyl-4-piperidyl)ethyl)-6-methyl-1,2-benzisoxazol-3(2H)-one fumarate], the Ki (sigma receptor) was 0.55 nM.
Cc1ccc2on(CCC3CCN(CC4CCCCC4)CC3)c(=O)c2c1 [Example 231, 2-(2-(1-Cyclohexylmethyl-4-piperidyl)ethyl)-5-methyl-1,2-benzisoxazol-3(2H)-one fumarate] showed a Ki (sigma receptor) of 0.42 nM.
Work on O=C(Nc1ccc2c(=O)n(CCC3CCN(Cc4ccccc4)CC3)oc2c1)c1ccccc1 [Example 252, 6-Benzoylamino-2-(2-(1-benzyl-4-piperidyl)ethyl)-1,2-benzisoxazol-3(2H)-one] yielded an IC50 [4, 8] of 0.73 nM.
